Tested on: 156681-154-R-J1-PDC tumor spheroids, viability % test/control
Experiment: Anticancer human tumor 156681-154-R-J1-PDC patient-derived melanoma cell line growth inhibition [TAK]
Conditions: spheroids with HUVEC and MSC; for IC50: curve of first compound; for viability, T/C: stronger effect = lower value
Excerpt: Combinatorial screen of targeted agents with TAK-243 and ipatasertib in multi-cell type tumor spheroids
A high-throughput screen of multi-cell type tumor spheroids was designed to identify active combinations of targeted small molecules and TAK-243 or ipatasertib. Complex spheroids include a stromal component modeled by human endothelial cells (HUVEC) and fibroblasts modeled by human mesenchymal stem cells (MSCs). The concentration ranges selected for each drug and investigational agent were based upon clinically achievable concentrations if the clinical Cmax of the agent was known.
Compounds. The drugs and investigational agents: TAK-243 (785004), ipatasertib (767898), everolimus (733504), selumetinib (741078), bortezomib (756655), trametinib (758246), ixazomib (758254), vemurafenib (761431), dabrafenib (764134), sapanisertib (764658), alpelisib (765974), and copanlisib (816437), were obtained from the National Cancer Institute (NCI) Developmental Therapeutics Program Chemical Repository. The FDA-approved anticancer drug set is available from the NCI Developmental Therapeutics Program. […] The stock solutions were prepared in dimethyl sulfoxide (DMSO, Sigma-Aldrich, St. Louis, MO, cat. D2650) at 800-fold the tested concentration and stored at -70 degrees C prior to their use. All drugs and investigational agents were tested over a range starting from a high concentration at or near the clinical Cmax and decreasing in half-log increments. If the clinical Cmax for an agent had not been determined, the highest concentration tested was 10 microM.
NCI60 Cell Culture. NCI60 cell lines were obtained from the NCI Developmental Therapeutics Program Tumor Repository. For each lot of cells, the Repository performed Applied Biosystems AmpFLSTR Identifiler testing with PCR amplification to confirm consistency with the published Identifier STR profile for each cell line. Cells were kept in continuous culture for no more than 20 passages. The optimal seeding densities for each of the cell lines at each time point assessed were determined prior to performing the concentration response studies. Briefly, the NCI60 human tumor lines were grown as monolayers in RPMI 1640 medium supplemented with 10% FBS and 2 mmol/L L-glutamine.
An additional 2 lines were from the NCI60 cell line panel including melanomas, MALME-3M and SK-MEL-2. Pooled donor human umbilical vein endothelial cells (HUVEC, Lonza, cat. CC-2519) and human mesenchymal stem cells (hMSC, Lonza, cat. PT-2501) were purchased from Lonza (Walkersville, MD).
PDMR cell lines were grown in complete medium (DC medium): Dulbecco's modified Eagle's medium (DMEM)/F12 supplemented with 5% fetal bovine serum (FBS), 2 mM L-glutamine, 100 U/mL penicillin and 100 µg/ml streptomycin, 0.4 µg/ml hydrocortisone, 10 ng/ml epidermal growth factor (EGF) recombinant human protein, 24 µg/mL adenine, and 0.1 mg/mL primocin. During culture from frozen stock vials, PDMR cells were cultured in the same medium containing 10 µM Y-27632 (see Table 3). The PDCs were cultured in complete DMEM/F12 media without 10 microM Y-27632 dihydrochloride for at least two passages prior to the screen. The pooled donor HUVEC and hMSC were cultured in endothelial cell growth medium 2 (PromoCell, Heidelberg, Germany, cat. C-22011) and mesenchymal stem cell growth medium 2 (PromoCell, cat. C-28009), respectively. For all experiments, HUVEC and hMSC were used at passages </=5.
For the pre-screen, cell seeding densities were determined from a titration spanning the range from 5,000 to 313 cells per well. The mct-spheroids including 60% malignant cells, 25% HUVEC and 15% MSC dispensed as a mixture into U-bottom Ultra-Low Attachment 384-well plates (Corning, NY)
High-throughput Drug Combination Screening.
Prior to their inoculation into 384-well plates, malignant cells, HUVEC, and hMSC were removed from T flasks using TrypLE express (Thermo Fisher Scientific, cat. 12605036) and harvested by centrifugation for 5 min at 233 x g. […]

[1] = second compound 0.3 µM, first compound 0.0316 µM
[2] = second compound 0.3 µM, first compound 0.1 µM
[3] = second compound 0.949 µM, first compound 0.0316 µM
[4] = second compound 0.949 µM, first compound 0.1 µM
[5] = second compound 3 µM, first compound 0.0316 µM
[6] = second compound 3 µM, first compound 0.1 µM
[7] = second compound 9.49 µM, first compound 0.0316 µM
[8] = second compound 9.49 µM, first compound 0.1 µM
[9] = second compound 30 µM, first compound 0.0316 µM
[10] = second compound 30 µM, first compound 0.1 µM
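Note: spheroids exposed to compounds for 7 days before the endpoint.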

Q: For `CC(C)CC(NC(=O)CNC(=O)c1cc(Cl)ccc1Cl)B1OC(=O)CC(CC(=O)O)(C(=O)O)O1` (stereo not given) + CC(C)NCC(C(=O)N1CCN(c2ncnc3c2C(C)CC3O)CC1)c1ccc(Cl)cc1, which IC50 (second compound 0.3 µM) is on record?
A: The IC50 was 18 nM.

Q: And the IC50 (second compound 0.949 µM)?
A: The IC50 was 17.1 nM.

Q: And the IC50 (second compound 3 µM)?
A: Its IC50 is 12.2 nM.

Q: And the IC50 (second compound 9.49 µM)?
A: Its IC50 is < 0.316 nM.

Q: And the IC50 (second compound 30 µM)?
A: Its IC50 is < 0.316 nM.

Q: What about the viability, T/C (second compound 0.3 µM, first compound 0.000316 µM) of the same compound?
A: Its viability, T/C is 96.8%.

Q: And the viability, T/C (second compound 0.3 µM, first compound 0.001 µM)?
A: The viability, T/C was 86.9%.

Q: And the viability, T/C (second compound 0.3 µM, first compound 0.00316 µM)?
A: The viability, T/C was 94.9%.

Q: And the viability, T/C (second compound 0.3 µM, first compound 0.01 µM)?
A: Its viability, T/C is 88%.

Q: What about the viability, T/C [1] of the same compound?
A: The viability, T/C was 13.8%.

Q: And the viability, T/C [2]?
A: Its viability, T/C is 0.27%.

Q: And the viability, T/C (second compound 0.949 µM, first compound 0.000316 µM)?
A: The viability, T/C was 88.7%.

Q: And the viability, T/C (second compound 0.949 µM, first compound 0.001 µM)?
A: Its viability, T/C is 87.7%.

Q: And the viability, T/C (second compound 0.949 µM, first compound 0.00316 µM)?
A: The viability, T/C was 90.2%.

Q: What about the viability, T/C (second compound 0.949 µM, first compound 0.01 µM) of the same compound?
A: Its viability, T/C is 82.1%.

Q: What about the viability, T/C [3] of the same compound?
A: The viability, T/C was 13.2%.

Q: What about the viability, T/C [4] of the same compound?
A: The viability, T/C was 0.34%.

Q: What about the viability, T/C (second compound 3 µM, first compound 0.000316 µM) of the same compound?
A: Its viability, T/C is 79.4%.

Q: What about the viability, T/C (second compound 3 µM, first compound 0.001 µM) of the same compound?
A: Its viability, T/C is 76.9%.

Q: What about the viability, T/C (second compound 3 µM, first compound 0.00316 µM) of the same compound?
A: Its viability, T/C is 78.9%.

Q: What about the viability, T/C (second compound 3 µM, first compound 0.01 µM) of the same compound?
A: The viability, T/C was 58.8%.

Q: And the viability, T/C [5]?
A: The viability, T/C was 8.09%.

Q: And the viability, T/C [6]?
A: The viability, T/C was 0.23%.

Q: What about the viability, T/C (second compound 9.49 µM, first compound 0.000316 µM) of the same compound?
A: Its viability, T/C is 43.3%.

Q: What about the viability, T/C (second compound 9.49 µM, first compound 0.001 µM) of the same compound?
A: Its viability, T/C is 41.5%.

Q: And the viability, T/C (second compound 9.49 µM, first compound 0.00316 µM)?
A: Its viability, T/C is 42%.

Q: What about the viability, T/C (second compound 9.49 µM, first compound 0.01 µM) of the same compound?
A: The viability, T/C was 40.9%.

Q: What about the viability, T/C [7] of the same compound?
A: The viability, T/C was 4.19%.

Q: What about the viability, T/C [8] of the same compound?
A: Its viability, T/C is 0.25%.

Q: What about the viability, T/C (second compound 30 µM, first compound 0.000316 µM) of the same compound?
A: Its viability, T/C is 17.5%.

Q: And the viability, T/C (second compound 30 µM, first compound 0.001 µM)?
A: Its viability, T/C is 20.3%.

Q: And the viability, T/C (second compound 30 µM, first compound 0.00316 µM)?
A: Its viability, T/C is 18.5%.

Q: And the viability, T/C (second compound 30 µM, first compound 0.01 µM)?
A: Its viability, T/C is 15.4%.

Q: What about the viability, T/C [9] of the same compound?
A: Its viability, T/C is 2.17%.

Q: And the viability, T/C [10]?
A: Its viability, T/C is 0.28%.

Q: `CC(C)(C)c1nc(-c2cccc(NS(=O)(=O)c3c(F)cccc3F)c2F)c(-c2ccnc(N)n2)s1` + CC(C)NCC(C(=O)N1CCN(c2ncnc3c2C(C)CC3O)CC1)c1ccc(Cl)cc1 was tested. Which IC50 (second compound 0.3 µM) did it give?
A: The IC50 was 239 nM.

Q: What about the IC50 (second compound 0.949 µM) of the same compound?
A: Its IC50 is 214 nM.

Q: And the IC50 (second compound 3 µM)?
A: Its IC50 is 148 nM.

Q: And the IC50 (second compound 9.49 µM)?
A: Its IC50 is < 31.6 nM.

Q: And the IC50 (second compound 30 µM)?
A: Its IC50 is < 31.6 nM.

Q: And the viability, T/C [1]?
A: The viability, T/C was 103%.

Q: What about the viability, T/C [2] of the same compound?
A: The viability, T/C was 90.7%.

Q: What about the viability, T/C (second compound 0.3 µM, first compound 0.316 µM) of the same compound?
A: The viability, T/C was 36.9%.

Q: What about the viability, T/C (second compound 0.3 µM, first compound 1 µM) of the same compound?
A: The viability, T/C was 14.5%.

Q: What about the viability, T/C (second compound 0.3 µM, first compound 3.16 µM) of the same compound?
A: Its viability, T/C is 11.9%.

Q: What about the viability, T/C (second compound 0.3 µM, first compound 10 µM) of the same compound?
A: The viability, T/C was 12.7%.

Q: And the viability, T/C [3]?
A: The viability, T/C was 90.1%.

Q: And the viability, T/C [4]?
A: The viability, T/C was 79%.

Q: And the viability, T/C (second compound 0.949 µM, first compound 0.316 µM)?
A: Its viability, T/C is 35.1%.

Q: What about the viability, T/C (second compound 0.949 µM, first compound 1 µM) of the same compound?
A: The viability, T/C was 12.7%.

Q: What about the viability, T/C (second compound 0.949 µM, first compound 3.16 µM) of the same compound?
A: The viability, T/C was 8.47%.

Q: What about the viability, T/C (second compound 0.949 µM, first compound 10 µM) of the same compound?
A: Its viability, T/C is 8.82%.

Q: What about the viability, T/C [5] of the same compound?
A: The viability, T/C was 67.6%.

Q: And the viability, T/C [6]?
A: Its viability, T/C is 62.4%.

Q: What about the viability, T/C (second compound 3 µM, first compound 0.316 µM) of the same compound?
A: Its viability, T/C is 26.1%.

Q: And the viability, T/C (second compound 3 µM, first compound 1 µM)?
A: Its viability, T/C is 7.91%.

Q: And the viability, T/C (second compound 3 µM, first compound 3.16 µM)?
A: Its viability, T/C is 5.22%.

Q: And the viability, T/C (second compound 3 µM, first compound 10 µM)?
A: The viability, T/C was 6.48%.

Q: What about the viability, T/C [7] of the same compound?
A: Its viability, T/C is 40.1%.

Q: And the viability, T/C [8]?
A: The viability, T/C was 31.7%.

Q: What about the viability, T/C (second compound 9.49 µM, first compound 0.316 µM) of the same compound?
A: Its viability, T/C is 17.3%.

Q: And the viability, T/C (second compound 9.49 µM, first compound 1 µM)?
A: The viability, T/C was 6.56%.

Q: And the viability, T/C (second compound 9.49 µM, first compound 3.16 µM)?
A: Its viability, T/C is 3.41%.

Q: And the viability, T/C (second compound 9.49 µM, first compound 10 µM)?
A: The viability, T/C was 3.45%.

Q: What about the viability, T/C [9] of the same compound?
A: The viability, T/C was 15.6%.

Q: What about the viability, T/C [10] of the same compound?
A: Its viability, T/C is 13%.

Q: And the viability, T/C (second compound 30 µM, first compound 0.316 µM)?
A: The viability, T/C was 7.77%.

Q: And the viability, T/C (second compound 30 µM, first compound 1 µM)?
A: Its viability, T/C is 2.12%.

Q: What about the viability, T/C (second compound 30 µM, first compound 3.16 µM) of the same compound?
A: The viability, T/C was 1.1%.

Q: And the viability, T/C (second compound 30 µM, first compound 10 µM)?
A: Its viability, T/C is 1.52%.
